# Entries after “also recorded” stand apart in the source; their conditions may differ. Non-standard residues stand in square brackets, D forms with d. Residues, ends and D or L forms follow the SMILES beside them. *: point of attachment. 12Ado = NCCCCCCCCCCCC(=O)O; Decanoyl = CCCCCCCCCC(=O)*; Orn = NCCC[CH](N)C(=O)O
# Columns and labels:
# K. pneumoniae 1287 = assay: Growth kinetics by absorbance at 620 nm; type: cell-based, Klebsiella pneumoniae; conditions: 10 μM Compound B, culture medium
# Protocol: (§1) FIGS. 6A-B present growth kinetics assessed by measuring the absorbance at 620 nm of E. coli 25922 (FIG. 6A) and K. pneumoniae 1287 (FIG. 6B) in absence or presence of the 10 μM of Compound B (circles denote vehicle control, triangles denote Compound B; error bars represent standard deviations).
# [1] = test system: Klebsiella pneumoniae 1287; assay: Checkerboard assay with lysozyme in broth medium; type: cell-based; conditions: growth medium, 2.5, 5, 10 μM Compound B combined with lysozyme, 24 hours
# Protocol: (§2) Inhibition was determined after 24 hours of incubation.
# Escherichia coli 25922 [2] = assay: Checkerboard assay with lysozyme in broth medium; type: cell-based
# Protocol: as §2
# E. coli = assay: Minimal bactericidal concentration; type: cell-based; conditions: Escherichia coli
# E. coli 25922 [3] = assay: Cytoplasmic membrane depolarization (DiSC35); type: cell-based, Escherichia coli; conditions: low Compound B concentrations
# Protocol: Cytoplasmic membrane depolarization measurements were assessed by monitoring the displacement of 3,39-dipropylthiadicarbocyanine iodide (DiSC35), a lipophilic potentiometric dye. Mid-logarithmic phase E. coli 25922 at OD 0.6 nm was centrifuged for 5 min at 15,000 g. The pellet was washed twice with 5 mM HEPES containing 5 mM glucose and 2 mM EDTA before addition of DiSC35 ([…]) and quenching at room temperature in the dark for 1 hour. KCl was then added (100 mM) and the suspension incubated overnight (4° C.). One hundred eighty microliters of this bacterial suspension was placed in a black 96-well plate, and fluorescence was recorded until signal stabilization (excitation 620 nm, emission 680 nm). Thereafter […] of the tested compound was added and the fluorescence recorded for up to 30 minutes at 37° C. with shaking. Data were obtained from at least 2 independent experiments performed in duplicate.
# (§3) (FU denotes fluorescence units; triangles denote Compound B, circles denote PMB, squares denote untreated control; error bars=SD).
# [4] = test system: resistance—nodulation—division deletion mutant; assay: MIC on efflux mutant; type: cell-based; conditions: Escherichia coli
# Source text: The following strains were used for the studies below: Escherichia coli strain ML-35p (American Type Culture Collection [ATCC]; […]. The following gram-positive species was investigated: methicillin-resistant Staphylococcus aureus clinical isolate USA300 10017 (a gift from Dr. Gili Regev-Yochay, Infectious Disease Unit, Sheba Medical Center, Israel). Additional Escherichia coli strains tested include β-lactamase producer 35218; clinical isolate strains 14182, 14384, and U16327; and two K12 isogenic mutants, AG100 and AG100A. Unless otherwise stated, all bacterial cultures were grown overnight in Luria-Bertani broth (LB).
# Minimal inhibitory concentrations (MICs) were determined as previously described. […] MICs were determined by microdilution susceptibility testing in 96-well plates (by Nunc) using inocula of 10^5 bacteria per ml. Cell populations were evaluated by optical density measurements at 620 nm and were calibrated against a set of standards. Hundred (100) μl of a bacterial suspension were added to 100 μl of culture medium (control) or to 100 μl of culture medium containing various tested compound concentrations in 2-fold serial dilutions. Inhibition of proliferation was determined by optical density measurements at 620 nm after an incubation period of 24 hours at 37° C. Data were obtained from ≥2 independent experiments performed in duplicate.
# [5] = test system: Klebsiella pneumoniae 1287; assay: Serum survival assay; type: cell-based; conditions: 10 μM Compound B
# Protocol: (§4) Serum survival assays were performed using fresh serum from normal mice or human serum from the Israel Blood Bank; samples were pooled and stored in aliquots at −80° C. until use. Time-dependent killing was determined in a final volume of 125 μL consisting of 112.5 μL of serum containing either a tested compound, egg white lysozyme (Amresco), lactoferrin (Vivinal lactoferrin FD; DMV International, Delhi, N.Y.), anti-murine C5/C5a antibody (25 μg/mL; ab194637; Abcam), or their combination, as specified. These solutions were supplemented with 12.5 μL of bacteria suspended in PBS at the desired concentration. After the specified time points of exposure, cultures were subjected to serial 10-fold dilutions in saline (0.85% NaCl) and plated for bacterial enumeration after incubation at 37° C. for an additional 24 hours. In heat-treated experiments, sera were incubated at 56° C. for 30 minutes for protein inactivation. Data were obtained from 3 independent experiments.
# Escherichia coli 25922 [6] = assay: Serum survival assay; type: cell-based
# Protocol: as §4
# [7] = test system: Escherichia coli mutant ML-35p; assay: Outer and cytoplasmic membrane permeabilization (nitrocefin / ONPG); type: cell-based; conditions: E. coli ML-35p, buffer, 16 minutes after addition
# Protocol: Membrane permeabilization was assessed using E. coli ML-35p as described elsewhere, to monitor the ability of the compounds to perturb the outer and/or cytoplasmic membranes. Reported data were obtained from ≥2 independent experiments performed in duplicate.
# Additional support for this view was obtained by comparing the compounds' susceptibility to damage gram-negative bacteria membranes, using the E. coli mutant ML-35p. Widely described in the literature, the mutant was considered herein as representative of all gram-negative bacteria, rather than a specific species. This mutant is constitutive for cytoplasmic β-galactosidase, lacks lactose permease, and expresses a plasmid-encoded periplasmic β-lactamase. Two chromogenic reporter molecules (nitrocefin and 2-nitrophenyl β-d-galactopyranoside, respectively, absorbing at 486 and 420 nm) were used to monitor permeabilization of the outer membrane and/or cytoplasmic membrane in a single assay.
# E. coli 25922 [8] = assay: Outer-membrane damage assay (NPN uptake); type: cell-based, Escherichia coli; conditions: sub-MIC concentrations
# Protocol: 1-N-phenylnaphthylamine (NPN) uptake (manifested as fluorescence) reflects outer-membrane damage because normally bacteria are able to exclude hydrophobic substances. As described elsewhere, E. coli 25922 was grown to the mid-logarithmic phase of growth (OD=0.4-0.6 at 600 nm), centrifuged, and resuspended in 5 mM HEPES buffer containing 5 mM glucose to OD 0.5. Next, […] of NPN solution (0.2 mM) was added to every milliliter bacteria suspension. Using black 96-well plates, […] of bacteria suspension was mixed with […] of test compound at the desired concentration and the fluorescence immediately monitored (excitation 360 nm, emission 460 nm) for up to 10 min. Data were obtained from at least 2 independent experiments performed in triplicate.
# as §3
# E. coli 25922 [9] = assay: Growth kinetics by absorbance at 620 nm; type: cell-based, Escherichia coli; conditions: 10 μM Compound B, culture medium
# Protocol: as §1
structure (smiles),measurement,setting,value
CCCCCCCCCC(=O)NC(CCCN)C(=O)NC(CCCN)C(=O)NCCCCCCCCCCCC(=O)NC(CCCN)C(N)=O (stereo not shown) [Compound B] (Decanoyl-[Orn][Orn][12Ado][Orn]-NH2; configuration not given here),growth kinetics in presence vs absence of compound,K. pneumoniae 1287,practically identical curves
same,growth inhibition in combination with lysozyme,[1],dose-dependent synergistic growth inhibition
same,growth inhibition in combination with lysozyme,"Escherichia coli 25922 [2]; growth medium, 2.5, 5, 10 μM Compound B combined with lysozyme, 24 hours",dose-dependent synergistic growth inhibition
same,"E. coli counts (final, from 4 log)","Escherichia coli 25922 [2]; medium, 10 μM Compound B plus 18 μM lysozyme",9 log CFU/mL
same,MBC,E. coli,> 50 µM
same,CM depolarization (DiSC35 fluorescence),E. coli 25922 [3],partial depolarization of the CM
same,MIC,[4],6.3 µM
same,inhibition at 10 µM,"[5]; Klebsiella pneumoniae, 1287, 80% mouse serum, 3 h, read-out: growth inhibition in mouse serum",48%
same,antibacterial effect in human serum,[5]; absence of exogenous lysozyme,significant growth inhibition
same,antibacterial effect in human serum,[5]; presence of exogenous lysozyme (18 μM),potent bactericidal effect
same,inhibition at 10 µM,"Escherichia coli 25922 [6]; Escherichia coli, 25922, 80% mouse serum, 10 μM Compound B, 3 h, read-out: growth inhibition in mouse serum",74%
same,antibacterial effect in human serum,"Escherichia coli 25922 [6]; 10 μM Compound B, absence of exogenous lysozyme",significant growth inhibition
same,antibacterial effect in human serum,"Escherichia coli 25922 [6]; 10 μM Compound B, presence of exogenous lysozyme (18 μM)",potent bactericidal effect
same,growth inhibition in serum obtained from treated mice,"Escherichia coli 25922 [6]; mouse serum obtained 1 hour after subcutaneous administration ([…]), 3 h incubation",80%
same,"E. coli counts (final, from 4 log)","Escherichia coli 25922 [6]; mouse serum, 10 μM Compound B plus 18 μM lysozyme",1.7 log CFU/mL
same,cytoplasmic membrane permeabilization,[7],similarly unable to permeabilize the cytoplasmic membrane at least up to approximately 10 μM; also recorded: some CM permeabilization occurred only at 10 mM
same,outer membrane permeabilization,[7],similarly potent in inducing outer membrane permeabilization; also recorded: as efficient as dermaseptin in altering outer membrane permeability
same,OM permeabilization (NPN fluorescence),E. coli 25922 [8],rapidly caused a dose-dependent increase in fluorescence
same,growth kinetics in presence vs absence of compound,E. coli 25922 [9],practically identical curves

# Reference: patent US20200399308A1, “COMPOUNDS AND METHODS FOR ELICITING ANTIMICROBIAL ACTIVITY” (Technion Research & Development Foundation Limited, priority 2018, published 2020)
